In paper PMC8808171, “Nonselective TRPC channel inhibition and suppression of aminoglycoside-induced premature termination codon readthrough by the small molecule AC1903” (The Journal of Biological Chemistry, 2022):

Target: T1, TRPC6:C6 (Homo sapiens, UniProt Q9Y210)
T1 construct: expressed in transfected cells; host or cells: WT HEK 293 (transient)
Assay: [Ca2+]i recordings (Fura-2), TRPC6:C6 in HEK 293 cells
Format: cell-based
Protocol: Based on the findings described above, we wondered whether AC1903—which is typically used as a TRPC5 inhibitor at concentrations of 30–100 μM in cellular assays ([29], [56])—might have limited selectivity for TRPC5 channels and whether its effect on intracellular G418 levels and PTC readthrough might be the consequence of inhibition of other or multiple targets. All well-characterized TRPC channel inhibitors reported to date modulate multiple TRP(C) channels ([34], [35], [36]). […] Because limited data for the selectivity of AC1903 are available in the public domain, we decided to profile AC1903 against a selection of calcium-permeable cation channels by intracellular calcium ([Ca^2+]i) recordings using well-characterized cell lines and TRP channel activators ([46], [57], [58]), and the Ca^2+ indicator Fura-2. In these assays, cells (HEK 293, HEK T-REx, or CHO) overexpressing the relevant ion channel protein and loaded with Fura-2 AM (a cell-permeable precursor of Fura-2) were preincubated with various concentrations of AC1903 or vehicle (DMSO) for 30 min. Then, changes in ratiometric fluorescence (from background) were recorded upon addition of the respective ion channel activator. […]

T1 sequence (Q9Y210 whole entry): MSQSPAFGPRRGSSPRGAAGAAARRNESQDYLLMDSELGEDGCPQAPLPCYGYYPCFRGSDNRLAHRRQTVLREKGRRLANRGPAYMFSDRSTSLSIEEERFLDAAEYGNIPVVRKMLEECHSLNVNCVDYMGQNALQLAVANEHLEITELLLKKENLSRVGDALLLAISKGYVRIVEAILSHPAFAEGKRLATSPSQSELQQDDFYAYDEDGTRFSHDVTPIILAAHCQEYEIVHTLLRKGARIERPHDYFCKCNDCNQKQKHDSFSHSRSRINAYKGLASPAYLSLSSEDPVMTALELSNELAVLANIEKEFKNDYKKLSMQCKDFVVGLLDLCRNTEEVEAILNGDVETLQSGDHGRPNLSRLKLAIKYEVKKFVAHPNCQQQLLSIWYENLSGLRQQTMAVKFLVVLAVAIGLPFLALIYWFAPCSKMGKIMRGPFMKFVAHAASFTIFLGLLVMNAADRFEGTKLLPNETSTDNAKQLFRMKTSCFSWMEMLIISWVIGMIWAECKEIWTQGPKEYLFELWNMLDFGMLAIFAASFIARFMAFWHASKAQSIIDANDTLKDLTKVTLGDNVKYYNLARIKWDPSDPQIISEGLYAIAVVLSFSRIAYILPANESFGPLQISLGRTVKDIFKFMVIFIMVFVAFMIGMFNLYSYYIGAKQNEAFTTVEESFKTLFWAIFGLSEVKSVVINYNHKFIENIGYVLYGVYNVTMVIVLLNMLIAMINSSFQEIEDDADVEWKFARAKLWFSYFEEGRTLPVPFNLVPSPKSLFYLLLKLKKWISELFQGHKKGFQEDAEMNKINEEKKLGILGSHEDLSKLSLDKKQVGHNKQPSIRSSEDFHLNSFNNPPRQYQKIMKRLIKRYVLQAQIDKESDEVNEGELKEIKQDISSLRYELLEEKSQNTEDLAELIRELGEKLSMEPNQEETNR

c1ccc(Cn2c(NCc3ccco3)nc3ccccc32)cc1 [AC1903]
IC50 (HEK 293, activator OAG (100 μM)): 15 µM
Hill slope (activator OAG): -1.5
